Assay results from ChEMBL document CHEMBL1201862, “PubChem BioAssay data set” (2004).
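Tested at 5 concentrations; 48 h exposure; 96-well plates; endpoints linearly interpolated, else capped at highest concentration. At the GI50, growth is halved.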 The source made the active and inactive calls. Cut-off read from the data, not from the text of the source: active = GI50 up to about 1.1 µM and inactive = higher.

Key:
Assay in all cases: inhibition of tumour cell growth, NCI panel, 48 h
MDA-MB-435 = tested on: MDA-MB-435
UACC-62 = tested on: UACC-62
OVCAR-8 = tested on: OVCAR-8
MDA-MB-231 = tested on: MDA-MB-231
786-0 = tested on: 786-0
SR = tested on: SR
UACC-257 = tested on: UACC-257
K562 = tested on: K562
IGROV-1 = tested on: IGROV-1
HCT-116 = tested on: HCT-116
NCI/ADR-RES = tested on: NCI/ADR-RES
PC-3 = tested on: PC-3
TK-10 = tested on: TK-10
BT-549 = tested on: BT-549
COLO 205 = tested on: COLO 205
ACHN = tested on: ACHN
RPMI-8226 = tested on: RPMI-8226
M14 = tested on: M14
A498 = tested on: A498

Q: `CCOC(=O)c1ccc(Nc2nc3cc(C(F)(F)F)ccc3nc2-c2ccccc2)cc1` was tested. Which GI50 (MDA-MB-435) did it give?
A: 69.3 µM (inactive)

Q: What about the GI50 (UACC-62) of the same compound?
A: 11.1 µM (inactive)

Q: What about the GI50 (OVCAR-8) of the same compound?
A: 31.3 µM (inactive)

Q: What about the GI50 (MDA-MB-231) of the same compound?
A: 79.6 µM (inactive)

Q: What about the GI50 (786-0) of the same compound?
A: 18.7 µM (inactive)

Q: And the GI50 (SR)?
A: > 100 µM (inactive)

Q: What about the GI50 (UACC-257) of the same compound?
A: > 100 µM (inactive)

Q: What about the GI50 (K562) of the same compound?
A: > 100 µM (inactive)

Q: And the GI50 (IGROV-1)?
A: 36.1 µM (inactive)

Q: What about the GI50 (HCT-116) of the same compound?
A: 67.6 µM (inactive)

Q: What about the GI50 (NCI/ADR-RES) of the same compound?
A: 70.5 µM (inactive)

Q: What about the GI50 (PC-3) of the same compound?
A: 22.2 µM (inactive)

Q: And the GI50 (TK-10)?
A: > 10 µM (inactive)

Q: And the GI50 (BT-549)?
A: > 100 µM (inactive)

Q: And the GI50 (COLO 205)?
A: 42.7 µM (inactive)

Q: What about the GI50 (ACHN) of the same compound?
A: 17.7 µM (inactive)

Q: What about the GI50 (RPMI-8226) of the same compound?
A: > 100 µM (inactive)

Q: What does the source list for `Nc1cc(N2CCCC2)nc(=O)n1Cc1ccccc1`?
A: GI50 (MDA-MB-435): > 100 µM (inactive); GI50 (OVCAR-8): > 100 µM (inactive); GI50 (MDA-MB-231): > 100 µM (inactive); GI50 (M14): > 100 µM (inactive); GI50 (786-0): > 100 µM (inactive); GI50 (SR): > 100 µM (inactive); GI50 (UACC-257): > 100 µM (inactive); GI50 (K562): > 100 µM (inactive); GI50 (IGROV-1): > 100 µM (inactive); GI50 (HCT-116): > 100 µM (inactive); GI50 (NCI/ADR-RES): > 100 µM (inactive); GI50 (PC-3): > 100 µM (inactive); GI50 (TK-10): > 100 µM (inactive); GI50 (BT-549): > 100 µM (inactive); GI50 (COLO 205): > 100 µM (inactive); GI50 (ACHN): > 100 µM (inactive); GI50 (RPMI-8226): > 100 µM (inactive)

Q: How did the GI50 (MDA-MB-435) turn out when `Clc1ccc(CSCc2ccc(Cl)cc2Cl)c(Cl)c1` was run?
A: 41 µM (inactive)

Q: What about the GI50 (UACC-62) of the same compound?
A: 50 µM (inactive)

Q: What about the GI50 (OVCAR-8) of the same compound?
A: > 100 µM (inactive)

Q: And the GI50 (MDA-MB-231)?
A: > 100 µM (inactive)

Q: What about the GI50 (M14) of the same compound?
A: 79.8 µM (inactive)

Q: And the GI50 (786-0)?
A: 60.8 µM (inactive)

Q: And the GI50 (A498)?
A: 40.2 µM (inactive)

Q: And the GI50 (UACC-257)?
A: 25.6 µM (inactive)

Q: And the GI50 (K562)?
A: 57.5 µM (inactive)

Q: What about the GI50 (IGROV-1) of the same compound?
A: 41.8 µM (inactive)

Q: And the GI50 (HCT-116)?
A: 41.4 µM (inactive)

Q: What about the GI50 (NCI/ADR-RES) of the same compound?
A: > 100 µM (inactive)

Q: What about the GI50 (PC-3) of the same compound?
A: 44.1 µM (inactive)

Q: What about the GI50 (TK-10) of the same compound?
A: > 100 µM (inactive)

Q: What about the GI50 (BT-549) of the same compound?
A: 97.5 µM (inactive)

Q: And the GI50 (COLO 205)?
A: 65.8 µM (inactive)

Q: And the GI50 (ACHN)?
A: > 100 µM (inactive)

Q: And the GI50 (RPMI-8226)?
A: 28.1 µM (inactive)

Q: Which GI50 (MDA-MB-435) does the source give for `COc1cc2cc(C(=O)N3CC(CCl)c4c3cc(N)c3ccccc43)[nH]c2cc1OCCN(C)C` (stereo unspecified) here?
A: < 0.005 µM (active)

Q: What about the GI50 (UACC-62) of the same compound?
A: < 0.005 µM (active)

Q: And the GI50 (OVCAR-8)?
A: < 0.005 µM (active)

Q: And the GI50 (MDA-MB-231)?
A: < 0.005 µM (active)

Q: And the GI50 (M14)?
A: < 0.005 µM (active)

Q: And the GI50 (786-0)?
A: < 0.005 µM (active)

Q: And the GI50 (A498)?
A: 0.00546 µM (active)

Q: And the GI50 (UACC-257)?
A: 0.00993 µM (active)

Q: And the GI50 (K562)?
A: < 0.005 µM (active)

Q: What about the GI50 (IGROV-1) of the same compound?
A: < 0.005 µM (active)

Q: And the GI50 (HCT-116)?
A: < 0.005 µM (active)

Q: And the GI50 (NCI/ADR-RES)?
A: 0.00931 µM (active)

Q: What about the GI50 (PC-3) of the same compound?
A: < 0.005 µM (active)

Q: And the GI50 (TK-10)?
A: 0.00522 µM (active)

Q: What about the GI50 (BT-549) of the same compound?
A: 0.051 µM (active)

Q: What about the GI50 (COLO 205) of the same compound?
A: < 0.005 µM (active)

Q: What about the GI50 (ACHN) of the same compound?
A: < 0.005 µM (active)

Q: And the GI50 (RPMI-8226)?
A: < 0.005 µM (active)

Q: How did the GI50 (MDA-MB-435) turn out when `CCOC(=O)c1nnsc1NC(=O)NN` was run?
A: > 100 µM (inactive)

Q: And the GI50 (UACC-62)?
A: > 100 µM (inactive)

Q: And the GI50 (OVCAR-8)?
A: > 100 µM (inactive)

Q: And the GI50 (MDA-MB-231)?
A: 25.4 µM (inactive)

Q: And the GI50 (M14)?
A: > 100 µM (inactive)

Q: And the GI50 (786-0)?
A: 89.3 µM (inactive)

Q: What about the GI50 (A498) of the same compound?
A: > 100 µM (inactive)

Q: What about the GI50 (UACC-257) of the same compound?
A: > 100 µM (inactive)

Q: What about the GI50 (K562) of the same compound?
A: 41.1 µM (inactive)

Q: And the GI50 (IGROV-1)?
A: > 100 µM (inactive)

Q: What about the GI50 (HCT-116) of the same compound?
A: > 100 µM (inactive)

Q: What about the GI50 (NCI/ADR-RES) of the same compound?
A: > 100 µM (inactive)

Q: What about the GI50 (PC-3) of the same compound?
A: > 100 µM (inactive)

Q: What about the GI50 (TK-10) of the same compound?
A: > 100 µM (inactive)

Q: What about the GI50 (BT-549) of the same compound?
A: > 100 µM (inactive)

Q: What about the GI50 (COLO 205) of the same compound?
A: > 100 µM (inactive)

Q: What about the GI50 (ACHN) of the same compound?
A: > 100 µM (inactive)

Q: And the GI50 (RPMI-8226)?
A: > 100 µM (inactive)

Q: What does the source list for `CCOC(=O)c1nc2ccc(C(F)(F)F)cc2nc1Oc1ccc(OC)cc1`?
A: GI50 (MDA-MB-435): > 100 µM (inactive); GI50 (UACC-62): > 100 µM (inactive); GI50 (OVCAR-8): > 100 µM (inactive); GI50 (MDA-MB-231): > 100 µM (inactive); GI50 (M14): > 100 µM (inactive); GI50 (786-0): > 100 µM (inactive); GI50 (A498): > 100 µM (inactive); GI50 (UACC-257): > 100 µM (inactive); GI50 (K562): > 100 µM (inactive); GI50 (IGROV-1): > 100 µM (inactive); GI50 (HCT-116): > 100 µM (inactive); GI50 (NCI/ADR-RES): > 100 µM (inactive); GI50 (PC-3): > 100 µM (inactive); GI50 (TK-10): > 100 µM (inactive); GI50 (BT-549): > 100 µM (inactive); GI50 (COLO 205): > 100 µM (inactive); GI50 (ACHN): > 100 µM (inactive); GI50 (RPMI-8226): > 100 µM (inactive)
